The record followed here is patent publication US20100056522A1, “INTRAOCULAR PRESSURE-LOWERING AGENT COMPRISING COMPOUND HAVING HISTONE DEACETYLASE INHIBITOR EFFECT AS ACTIVE INGREDIENT” (Santen Pharmaceutical Co., Ltd., priority 2007, published 2010).

The subject of assay [1] is HDAC (HeLa nuclear extract). As to the kind of experiment: Test for evaluation of an HDAC inhibitory effect (HDAC Fluorimetric Assay/Drug Discovery Kit, Biomol). It is filed as biochemical. The settings on record: final concentration of test compound 30 μM, rates of more than 100% are shown as 100%. The procedure: Using HDAC Fluorimetric Assay/Drug Discovery Kit (manufactured by Biomol), an HDAC inhibitory effect of the present compounds was measured according to the protocol included with the kit. The kit contains Buffer, HeLa nuclear extract (includes an HDAC), Substrate, Developer and Trichostatin A (an HDAC inhibitor).
A test compound was dissolved in dimethyl sulfoxide, whereby a 2 mg/mL solution was prepared. Then, the resulting solution was diluted with Buffer containing 5% dimethyl sulfoxide, whereby a 150 μM test compound solution was prepared.
1) To a 384-well culture plate, the test compound solution was added in an amount of 2 μL per well.
2) HeLa nuclear extract was diluted 30-fold with Buffer. The resulting solution was added in an amount of 3 μL per well and then, incubation was performed at 37° C. for 2 hours.
3) Substrate was diluted 500-fold with Buffer. The resulting solution was added in an amount of 5 μL per well (the final concentration of the test compound was 30 μM) and then, incubation was performed at 37° C. for 10 minutes.
4) Developer was diluted 20-fold with Buffer and Trichostatin A (2 μM) was added to it. The resulting solution was added in an amount of 10 μL per well and then, incubation was performed at room temperature for 15 minutes.
5) The fluorescence intensity of each well was measured using multilabel counter ARVO (manufactured by Wallac) with excitation at 360 nm and emission at 460 nm.
6) A control data was obtained from the same experiment except that Buffer containing 5% DMSO was added instead of the test compound solution as the above-mentioned procedure from 1) to 5).
7) A blank data was obtained from the same experiment except that Buffer containing 5% DMSO was added instead of the test compound solution and that Buffer was added instead of Hela nuclear extract as the above-mentioned procedure from 1) to 5).
Enzyme inhibitory rate (%) was calculated using the following equation.
(Enzyme Inhibitory Rate(%))=100×[1−{(Fluorescence Intensity of Test Compound Solution)−(Florescence Intensity of Blank)}/{(Florescence Intensity of Control)−(Florescence Intensity of Blank)}]

Assay [2] relates to TM-1 cells (human trabecular meshwork cell line). Description: Test for evaluation of effect of morphological change on trabecular meshwork cells (cell shape index). It is filed as cell-based. The settings on record: 10 μM, 24 hours, control CSI 0.679, lower CSI indicates greater morphological change. The protocol:
As a method for evaluating a cellular morphological change, an evaluation system using the cell shape index (hereinafter referred to as “CSI”) as an index has been reported in The Journal of Clinical Investigation, 103, 1141-1150 (1999). Therefore, according to the method described in the above document, an effect of morphological change by the present compounds on trabecular meshwork cells was evaluated.
A human trabecular meshwork cell line (hereinafter referred to as “TM-1 cells”) reported in Investigative Opthalmology & Visual Science, 43, 151-161 (2002) was used.
Culture medium 1: A reagent was prepared by adding fetal bovine serum (10%), L-glutamine (2 mM), amphotericin B (2.5 μg/mL), and gentamicin (25 μg/mL) to Dulbecco's Modified Eagle Medium (hereinafter referred to as “D-MEM”).
Culture medium 2: Fetal bovine serum (3%), L-glutamine (2 mM), amphotericin B (2.5 μg/mL), and gentamicin (25 μg/mL) were added to D-MEM.
Cell staining liquid: A mixed liquid of Calcein-AM (16 μM) and Hoechst 33342 (40 μM) was prepared by diluting a Calcein-AM solution (cytoplasmic staining reagent, manufactured by Dojindo Laboratories) and a Hoechst 33342 solution (nuclear staining reagent, manufactured by Dojindo Laboratories) with D-MEM containing L-glutamine (2 mM), amphotericin B (2.5 μg/mL), and gentamicin (25 μg/mL).
TM-1 cells subcultured at 37° C. in a 8% carbon dioxide gas atmosphere were treated with a trypsin/EDTA solution (0.05% trypsin and 0.53 mM tetrasodium ethylenediaminetetraacetate) at 24 hours before performing a drug treatment mentioned below and seeded on a 96-well culture plate. The culture medium 1 was used for the subculture of the cells. The culture medium 2 was used for the cell culture after seeding the cells on the plate.
A test compound was dissolved in dimethyl sulfoxide, whereby a 5 mM solution was prepared. Then, the resulting solution was diluted with the culture medium 2, whereby a 200 μM test compound solution was prepared.
It has been reported that Y-27632 which is a Rho kinase inhibitor induces a morphological change in trabecular meshwork cells in Investigative Opthalmology & Visual Science, 42, 137-144 (2001). Therefore, Y-27632 (produced according to the method described in WO 90/05723) was used as a positive control, and dissolved in dimethyl sulfoxide in the same manner as the test compound, whereby a 5 mM solution was prepared, and then, the resulting solution was diluted with the culture medium 2, whereby a 200 μM positive control compound solution was prepared.
1) To a 96-well culture plate, a solution of TM-1 cells adjusted to a cell density of […] was added in an amount of 95 μL (1.5×10^4 cells) per well.
2) Incubation was performed at 37° C. in a 8% carbon dioxide gas atmosphere for 24 hours.
3) The test compound solution or positive control compound solution was added in an amount of 5 μL per well (the final concentration of the test compound or positive control compound was 10 μM). As a control, the culture medium 2 containing dimethyl sulfoxide (4%) was added in an amount of 5 μL per well.
4) Incubation was performed at 37° C. in a 8% carbon dioxide gas atmosphere for 24 hours.
5) The cell staining liquid was added in an amount of 10 μL per well.
6) Incubation was performed at 37° C. in a 8% carbon dioxide gas atmosphere for 1 hour to stain the cells.
7) A 37% formaldehyde solution was added in an amount of 10 μL per well.
8) Incubation was performed at room temperature for 1 hour to fix the cells.
9) Washing with phosphate-buffered saline was performed.
10) Using Array Scan Vti HCS reader (manufactured by Cellomics), images of stained cells magnified with a 20-fold objective lens were captured in 80 fields (10 fields×8 wells) per test compound addition group.
11) CSI was calculated for each cell and an average value was obtained for each test compound addition group.
CSI was calculated using the following equation.
CSI=4π×(Cell Area)/(Cell Perimeter)^2

Take `Nc1ccccc1NC(=O)c1ccc(CN(CCCN2CCOCC2)C(=O)Nc2ccc3c(c2)CCO3)cn1` [Compound 1-38, N-(2-Aminophenyl)-5-[3-(2,3-dihydro-1-benzofuran-5-yl)-1-[3-(morpholin-4-yl)propyl]ureidomethyl]pyridine-2-carboxylic acid amide]: the “Enzyme Inhibitory Rate (%)” value in assay [1] is 97%. The same compound showed a CSI in assay [2] of 0.575.

On to `CN(C)CCCN(Cc1ccc(C(=O)Nc2ccccc2N)nc1)C(=O)NCC(=O)c1ccccc1` [Compound 1-40, N-(2-Aminophenyl)-5-[1-(3-dimethylaminopropyl)-3-(phenylcarbonylmethyl)ureidomethyl]pyridine-2-carboxylic acid amide], for which the “Enzyme Inhibitory Rate (%)” value in assay [1] is reported as 97%. Further, the CSI in assay [2] turned out to be 0.572.

With `CN(C)CCCN(Cc1ccc(C(=O)Nc2ccccc2N)nc1)C(=O)Nc1nccs1` [Compound 1-41, N-(2-Aminophenyl)-5-[1-(3-dimethylaminopropyl)-3-(1,3-thiazol-2-yl)ureidomethyl]pyridine-2-carboxylic acid amide], the “Enzyme Inhibitory Rate (%)” value in assay [1] worked out at 96%. The compound further had a CSI in assay [2] of 0.499.

Regarding `COc1ccc2nc(NC(=O)N(CCCN(C)C)Cc3ccc(C(=O)Nc4ccccc4N)nc3)sc2c1` [Compound 1-42, N-(2-Aminophenyl)-5-[1-(3-dimethylaminopropyl)-3-(6-methoxy-1,3-benzothiazol-2-yl)ureidomethyl]pyridine-2-carboxylic acid amide], in assay [1], the “Enzyme Inhibitory Rate (%)” value was found to be 98%. Further, the CSI in assay [2] was found to be 0.536.

Regarding `CN(C)CCCN(Cc1ccc(C(=O)Nc2ccccc2N)nc1)C(=O)Nc1nc2ccc(F)cc2s1` [Compound 1-44, N-(2-Aminophenyl)-5-[1-(3-dimethylaminopropyl)-3-(6-fluoro-1,3-benzothiazol-2-yl)ureidomethyl]pyridine-2-carboxylic acid amide], the “Enzyme Inhibitory Rate (%)” value in assay [1] is recorded as 98%. The same compound returned a CSI in assay [2] of 0.554.

Turning to `CCN(CC)CCCN(Cc1ccc(C(=O)Nc2ccccc2N)nc1)C(=O)Nc1ccc(F)c(F)c1` [Compound 1-46, N-(2-Aminophenyl)-5-[1-(3-diethylaminopropyl)-3-(3,4-difluorophenyl)ureidomethyl]pyridine-2-carboxylic acid amide], the “Enzyme Inhibitory Rate (%)” value in assay [1] was 98%. Further, the CSI in assay [2] turned out to be 0.547.

As for `CCN(CC)CCCN(Cc1ccc(C(=O)Nc2ccccc2N)nc1)C(=O)Nc1ccc(F)c([N+](=O)[O-])c1` [Compound 1-51, N-(2-Aminophenyl)-5-[1-(3-diethylaminopropyl)-3-(4-fluoro-3-nitrophenyl)ureidomethyl]pyridine-2-carboxylic acid amide], the “Enzyme Inhibitory Rate (%)” value in assay [1] came to 98%. The compound further registered a CSI in assay [2] of 0.518.

Turning to `CN(C)CCN(Cc1ccc(C(=O)Nc2ccccc2N)nc1)C(=O)Nc1ccc2c(c1)OCCO2` [Compound 1-53, N-(2-Aminophenyl)-5-[3-(2,3-dihydrobenzo[1,4]dioxin-6-yl)-1-(2-dimethylaminoethyl)ureidomethyl]pyridine-2-carboxylic acid amide], the “Enzyme Inhibitory Rate (%)” value in assay [1] stood at 98%. In assay [2], this compound had a CSI of 0.502.

`CN(C)CCN(Cc1ccc(C(=O)Nc2ccccc2N)nc1)C(=O)Nc1cccc(F)c1` [Compound 1-55, N-(2-Aminophenyl)-5-[1-(2-dimethylaminoethyl)-3-(3-fluorophenyl)ureidomethyl]pyridine-2-carboxylic acid amide]: the “Enzyme Inhibitory Rate (%)” value in assay [1] was found to be 98%. Also, in assay [2], the CSI turned out to be 0.525.

For `CN(C)CCN(Cc1ccc(C(=O)Nc2ccccc2N)nc1)C(=O)Nc1ccsc1` [Compound 1-56, N-(2-Aminophenyl)-5-[1-(2-dimethylaminoethyl)-3-(thiophen-3-yl)ureidomethyl]pyridine-2-carboxylic acid amide], the “Enzyme Inhibitory Rate (%)” value in assay [1] is listed as 97%. The same compound returned a CSI in assay [2] of 0.526.

As for `Nc1ccccc1NC(=O)c1ccc(CN(CCCN2CCCC2)C(=O)Nc2cccnc2)cn1` [Compound 1-58, N-(2-Aminophenyl)-5-[3-(pyridin-3-yl)-1-[3-(pyrrolidin-1-yl)propyl]ureidomethyl]pyridine-2-carboxylic acid amide], the “Enzyme Inhibitory Rate (%)” value in assay [1] is recorded as 98%. Further, the CSI in assay [2] is reported as 0.518.

On to `CN1CCN(CCN(Cc2ccc(C(=O)Nc3ccccc3N)nc2)C(=O)Nc2cccc(F)c2)CC1` [Compound 1-63, N-(2-Aminophenyl)-5-[3-(3-fluorophenyl)-1-[2-(4-methylpiperazin-1-yl)ethyl]ureidomethyl]pyridine-2-carboxylic acid amide], for which the “Enzyme Inhibitory Rate (%)” value in assay [1] was found to be 97%. The CSI in assay [2] is given as 0.521.

Take `CN1CCN(CCCN(Cc2ccc(C(=O)Nc3ccccc3N)nc2)C(=O)Nc2ccc3c(c2)OCCO3)CC1` [Compound 1-68, N-(2-Aminophenyl)-5-[3-(2,3-dihydrobenzo[1,4]dioxin-6-yl)-1-[3-(4-methylpiperazin-1-yl)propyl]ureidomethyl]pyridine-2-carboxylic acid amide]: the “Enzyme Inhibitory Rate (%)” value in assay [1] was 99%. The compound also yielded a CSI in assay [2] of 0.502.

Turning to `Cc1cccc(NC(=O)N(CCN(C)C)Cc2ccc(C(=O)Nc3ccccc3N)nc2)c1` [Compound 1-79, N-(2-Aminophenyl)-5-[1-(2-dimethylaminoethyl)-3-(3-methylphenyl)ureidomethyl]pyridine-2-carboxylic acid amide], the “Enzyme Inhibitory Rate (%)” value in assay [1] is reported as 98%. The CSI in assay [2] was determined as 0.497.

`Nc1ccccc1NC(=O)c1ccc(CN(CCCCN2CCOCC2)C(=O)Nc2ccc3c(c2)OCCO3)cn1` [Compound 1-90, N-(2-Aminophenyl)-5-[3-(2,3-dihydrobenzo[1,4]dioxin-6-yl)-1-[4-(morpholin-4-yl)butyl]ureidomethyl]pyridine-2-carboxylic acid amide]: the “Enzyme Inhibitory Rate (%)” value in assay [1] amounted to 98%. The compound further yielded a CSI in assay [2] of 0.480.

For `COc1ccccc1NC(=O)N(CCCCN1CCOCC1)Cc1ccc(C(=O)Nc2ccccc2N)nc1` [Compound 1-115, N-(2-Aminophenyl)-5-[3-(2-methoxyphenyl)-1-[4-(morpholin-4-yl)butyl]ureidomethyl]pyridine-2-carboxylic acid amide], the “Enzyme Inhibitory Rate (%)” value in assay [1] stood at 97%. In assay [2], this compound registered a CSI of 0.467.
